Experimental data taken from PMC4382590 (Biochemistry, 2015).

Assays:
saFabI [1] = molecular target: T1, saFabI (Staphylococcus aureus, UniProt Q6GI75); assay: ThermoFluor thermal shift; format: binding; conditions: Tm of free enzyme 62.6
T1 sequence (Q6GI75 1-256): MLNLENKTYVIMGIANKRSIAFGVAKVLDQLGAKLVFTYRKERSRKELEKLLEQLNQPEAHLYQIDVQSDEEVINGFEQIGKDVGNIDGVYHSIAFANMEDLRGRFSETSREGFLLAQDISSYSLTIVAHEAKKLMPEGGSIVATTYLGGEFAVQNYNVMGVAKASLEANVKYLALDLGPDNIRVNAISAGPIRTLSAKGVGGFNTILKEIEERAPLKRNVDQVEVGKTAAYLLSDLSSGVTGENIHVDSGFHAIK

saFabI [2] = molecular target: T1, saFabI; assay: X-ray crystal structure; format: binding; conditions: ternary complexes with PT12, PT400, PT404, PT449 or MUT37307
ecFabI = molecular target: T2, ecFabI (Escherichia coli, UniProt P0AEK4); assay: X-ray crystal structure; format: binding
T2 sequence (P0AEK4 1-262): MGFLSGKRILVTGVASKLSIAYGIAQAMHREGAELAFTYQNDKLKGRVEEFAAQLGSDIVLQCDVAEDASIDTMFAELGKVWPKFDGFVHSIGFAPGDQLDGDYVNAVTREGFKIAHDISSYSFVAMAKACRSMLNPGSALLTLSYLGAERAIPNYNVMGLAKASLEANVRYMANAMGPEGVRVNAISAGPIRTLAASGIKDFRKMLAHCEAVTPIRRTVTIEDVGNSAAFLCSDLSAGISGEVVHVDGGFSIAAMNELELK

saFabI [3] = molecular target: T1, saFabI; assay: single-concentration progress curve analysis; format: biochemical

For `Cc1c(N)cccc1Cn1ccc(OCCc2cccs2)cc1=O` [CG400549], the “Wild-type saFabI” value (saFabI [1]; ternary complex with NADPH) was 71.2 °C.

For `NC(=O)c1ccc[n+]([C@@H]2O[C@H](COP(=O)(O)OP(=O)(O)OC[C@H]3O[C@@H](n4cnc5c(N)ncnc54)[C@H](OP(=O)(O)O)[C@@H]3O)[C@@H](O)[C@H]2O)c1` [NADP^+], the X-ray crystal structure (saFabI [2]) was “saFabI in complex with NADP^+ and PT12, PT400, PT404, PT449, or MUT37307”.

In the case of `NC(=O)c1ccc[n+]([C@@H]2O[C@H](COP(=O)(O)OP(=O)(O)OC[C@H]3O[C@@H](n4cnc5c(N)ncnc54)[C@H](O)[C@@H]3O)[C@@H](O)[C@H]2O)c1` [NAD^+], the X-ray crystal structure (ecFabI; ternary complex with PT449) is reported as “ecFabI in complex with NAD^+ and PT449 have been deposited in the PDB”.

For `CCCCCCc1ccc(Oc2ccc([N+](=O)[O-])cc2)c(O)c1` [PT12], the Ki (saFabI [3]) was 50 pM.

For `CCCCCCc1ccc(Oc2ccccc2C#N)c(O)c1` [PT119], the “Wild-type saFabI” value (saFabI [1]; ternary complex with NADP+) was 70.4 °C.

Work on `CCc1cc(O)c(Oc2ccc([N+](=O)[O-])cc2Cl)cc1F` [PT404] yielded a Ki (saFabI [3]) of 750 pM.

With `N#Cc1cc(Br)ccc1Oc1ccc(Cl)cc1O` [PT449] the X-ray crystal structure (ecFabI; ternary complex with NAD+) was “ecFabI in complex with NAD^+ and PT449 have been deposited in the PDB”.
